Laboratory results reported in ChEMBL document CHEMBL1201862, “PubChem BioAssay data set” (2004).
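Where inhibition never reached the appropriate level, the endpoint shown equals the highest concentration tested. Otherwise, values were interpolated linearly from a five-concentration, 48-hour dose response in 96-well plates. Abbreviation: GI50, concentration required for 50% inhibition of growth.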 The source made the active and inactive calls. Rule as the data show it: active = GI50 up to about 1.1 µM and inactive = higher.

Key:
Assay in all cases: DTP human tumour cell line panel, 48 h
SR = system: SR
NCI-H226 = system: NCI-H226
MDA-N = system: MDA-N
KM12 = system: KM12
U-251 = system: U-251
SF-268 = system: SF-268
COLO 205 = system: COLO 205
DU-145 = system: DU-145
SK-MEL-5 = system: SK-MEL-5
MDA-MB-435 = system: MDA-MB-435
MCF7 = system: MCF7
786-0 = system: 786-0
SK-MEL-28 = system: SK-MEL-28
RXF 393 = system: RXF 393
OVCAR-5 = system: OVCAR-5
LOX IMVI = system: LOX IMVI
HL-60 = system: HL-60
NCI/ADR-RES = system: NCI/ADR-RES
A498 = system: A498

SMILES	GI50 (SR)	GI50 (NCI-H226)	GI50 (MDA-N)	GI50 (KM12)	GI50 (U-251)	GI50 (SF-268)	GI50 (COLO 205)	GI50 (DU-145)	GI50 (SK-MEL-5)	GI50 (MDA-MB-435)	GI50 (MCF7)	GI50 (786-0)	GI50 (SK-MEL-28)	GI50 (RXF 393)	GI50 (OVCAR-5)	GI50 (LOX IMVI)	GI50 (HL-60)	GI50 (NCI/ADR-RES)	GI50 (A498)
C#Cc1cc(-c2nc3ccccc3s2)ccc1N	25.1 µM (inactive)	12.4 µM (inactive)	33 µM (inactive)	18.9 µM (inactive)	20.6 µM (inactive)	25.8 µM (inactive)	17.5 µM (inactive)	16.7 µM (inactive)	26.6 µM (inactive)	19.5 µM (inactive)	< 0.01 µM (active)	34.4 µM (inactive)	16.1 µM (inactive)	25.8 µM (inactive)	32 µM (inactive)	13.7 µM (inactive)	24.7 µM (inactive)	27.7 µM (inactive)	
Cc1ccc(NC(=O)CSc2nnc(Cc3ccccc3)o2)c(C)c1	> 100 µM (inactive)	> 100 µM (inactive)		> 100 µM (inactive)	> 100 µM (inactive)	> 100 µM (inactive)	> 100 µM (inactive)		> 100 µM (inactive)			> 100 µM (inactive)	> 100 µM (inactive)	> 100 µM (inactive)		> 100 µM (inactive)	> 100 µM (inactive)		
O=C(Nc1ccc(Sc2ccc(/N=N/c3c(O)c(S(=O)(=O)O)cc4cc(S(=O)(=O)O)ccc34)cc2)cc1)c1ccc(/N=N/c2c(O)c(S(=O)(=O)O)cc3cc(S(=O)(=O)O)ccc23)cc1	10.9 µM (inactive)	39.3 µM (inactive)		33 µM (inactive)	35.2 µM (inactive)	38.7 µM (inactive)	15.9 µM (inactive)		13.5 µM (inactive)			43.6 µM (inactive)	32.1 µM (inactive)	33.1 µM (inactive)	47.2 µM (inactive)	18.5 µM (inactive)	6.97 µM (inactive)		45.2 µM (inactive)
O=C(/C=C/c1ccc(O)cc1)c1cc(Cl)ccc1O	16.9 µM (inactive)	95.9 µM (inactive)		> 100 µM (inactive)	37.8 µM (inactive)	42.8 µM (inactive)	> 100 µM (inactive)		37.2 µM (inactive)			77.6 µM (inactive)	44.2 µM (inactive)	28.9 µM (inactive)		18.7 µM (inactive)	17.8 µM (inactive)		> 100 µM (inactive)
CSc1nsc(-c2ccccc2)[s+]1.[O-][Cl+3]([O-])([O-])[O-]	> 100 µM (inactive)	> 100 µM (inactive)		> 100 µM (inactive)	> 100 µM (inactive)	> 100 µM (inactive)	> 100 µM (inactive)		> 100 µM (inactive)			> 100 µM (inactive)	> 100 µM (inactive)	> 100 µM (inactive)			72.1 µM (inactive)		> 100 µM (inactive)
Cc1ccc(NCCO)cc1	> 100 µM (inactive)	> 100 µM (inactive)		> 100 µM (inactive)	> 100 µM (inactive)	> 100 µM (inactive)	> 100 µM (inactive)		> 100 µM (inactive)			> 100 µM (inactive)	> 100 µM (inactive)		> 100 µM (inactive)	> 100 µM (inactive)	> 100 µM (inactive)		
Cc1cc(Cl)ccc1NC(=O)CC1SC(NC(=O)c2ccccc2Cl)=NC1=O (stereo unspecified)	15.3 µM (inactive)	25.2 µM (inactive)			15.7 µM (inactive)	16.9 µM (inactive)			30.8 µM (inactive)			19 µM (inactive)	22 µM (inactive)	17.7 µM (inactive)	27.9 µM (inactive)	21.9 µM (inactive)	2.19 µM (inactive)		> 100 µM (inactive)
CN1B(c2ccccc2)N(C)C(=O)N(C)C1=O		> 100 µM (inactive)	> 100 µM (inactive)	> 100 µM (inactive)	> 100 µM (inactive)	> 100 µM (inactive)	> 100 µM (inactive)	> 100 µM (inactive)	> 100 µM (inactive)	> 100 µM (inactive)	> 100 µM (inactive)	> 100 µM (inactive)		> 100 µM (inactive)	> 100 µM (inactive)		> 100 µM (inactive)	> 100 µM (inactive)	
COC(=O)CC1(O)C(=O)OCc2c1cc1n(c2=O)Cc2c-1nc1ccccc1c2OC (stereo unspecified)	< 0.01 µM (active)	0.115 µM (active)		5.27 µM (inactive)	0.0964 µM (active)	0.133 µM (active)	3.77 µM (inactive)		0.358 µM (active)			0.136 µM (active)	27.5 µM (inactive)	0.508 µM (active)	0.902 µM (active)	0.0993 µM (active)	0.0959 µM (active)		0.724 µM (active)
Cc1cc(N(CCC#N)CCC#N)ccc1/C=C1N=C(/C=C\c2ccccc2)OC\1=O	30.3 µM (inactive)	> 100 µM (inactive)		> 100 µM (inactive)	> 100 µM (inactive)	> 100 µM (inactive)	> 100 µM (inactive)		> 100 µM (inactive)			> 100 µM (inactive)	> 100 µM (inactive)	> 100 µM (inactive)	> 100 µM (inactive)	> 100 µM (inactive)	> 100 µM (inactive)		> 100 µM (inactive)
CCOC(=O)C1=c2[nH]c3cccc4cccc(c43)n2C(=O)CC1	> 100 µM (inactive)		> 100 µM (inactive)	26 µM (inactive)	> 100 µM (inactive)		43.8 µM (inactive)	51.6 µM (inactive)	65.3 µM (inactive)	> 100 µM (inactive)	36.2 µM (inactive)	34.4 µM (inactive)	> 100 µM (inactive)	> 100 µM (inactive)	> 100 µM (inactive)	25.4 µM (inactive)	17.3 µM (inactive)	> 100 µM (inactive)	> 100 µM (inactive)
CC1=NN(c2nc(N)nc(C(C)Sc3cc(Cl)c(C)cc3S(N)(=O)=O)n2)C(C)(C)C1 (stereo unspecified)	> 10 µM (inactive)	> 10 µM (inactive)	> 10 µM (inactive)	> 10 µM (inactive)	> 10 µM (inactive)	> 10 µM (inactive)	> 10 µM (inactive)	> 10 µM (inactive)	> 10 µM (inactive)		> 10 µM (inactive)	> 10 µM (inactive)	> 10 µM (inactive)	> 10 µM (inactive)	> 10 µM (inactive)	> 10 µM (inactive)	> 10 µM (inactive)	> 10 µM (inactive)	> 10 µM (inactive)
Cc1c(C(=O)/C=C/c2ccccc2[N+](=O)[O-])[n+]([O-])c2ccccc2[n+]1[O-]	4.34 µM (inactive)	11.4 µM (inactive)		10.3 µM (inactive)	15.2 µM (inactive)		3.13 µM (inactive)		12 µM (inactive)			5.53 µM (inactive)	11.7 µM (inactive)		13.7 µM (inactive)		1.58 µM (inactive)		13.3 µM (inactive)
O=C(N/C(=C\c1cc(Cl)ccc1Cl)c1nc2c(O)nc(S)nc2[nH]1)c1ccccc1	25.5 µM (inactive)	> 100 µM (inactive)		23.4 µM (inactive)	32.1 µM (inactive)	33.4 µM (inactive)	37.4 µM (inactive)		47 µM (inactive)			17.5 µM (inactive)	28.1 µM (inactive)	21.6 µM (inactive)	> 100 µM (inactive)	22.1 µM (inactive)	4.82 µM (inactive)		> 100 µM (inactive)
